The subject of test [1] is Escherichia coli. The test can be described thus: Antibacterial activity against Escherichia coli NCTC 10418 incubated for 48 hr followed by subculturing measured after 18 hr. The class given is functional.
The subject of a further test is Candida albicans. Kind of test: Antifungal activity against Candida albicans ATCC 10231 at 1 mg/ml after 24 hr by agar cup diffusion method. It is filed as functional. Conditions: ATCC 10231, 24 h, read-out: DIZ.
Test [2] concerns Pseudomonas aeruginosa. The test can be described thus: Antibacterial activity against Pseudomonas aeruginosa ATCC 9027 incubated for 48 hr followed by subculturing measured after 18 hr. The class given is functional.
For test [3], the system named is Escherichia coli. Kind of test: Antibacterial activity against Escherichia coli NCTC 10418 after 48 hr by two-fold serial dilution method. The class given is functional. Conditions: NCTC 10418, 48 h.
The test system of test [4] is Staphylococcus aureus. Kind of test: Antibacterial activity against Staphylococcus aureus ATCC 6538 at 1 mg/ml after 24 hr by agar cup diffusion method. It is filed as functional. Conditions: ATCC 6538, 24 h, read-out: DIZ.
In test [5] the test system is Pseudomonas aeruginosa. The test can be described thus: Antibacterial activity against Pseudomonas aeruginosa ATCC 9027 at 1 mg/ml after 24 hr by agar cup diffusion method. Conditions: ATCC 9027, 24 h, read-out: DIZ. The class given is functional.
The target of test [6] is Cyclin-dependent kinase 5/CDK5 activator 1 (Homo sapiens, UniProt Q00535). Kind of test: Inhibition of CDK5/p25 (unknown origin). It is filed as protein-complex assay.
Chain of Cyclin-dependent kinase 5/CDK5 activator 1 (Q00535 whole entry): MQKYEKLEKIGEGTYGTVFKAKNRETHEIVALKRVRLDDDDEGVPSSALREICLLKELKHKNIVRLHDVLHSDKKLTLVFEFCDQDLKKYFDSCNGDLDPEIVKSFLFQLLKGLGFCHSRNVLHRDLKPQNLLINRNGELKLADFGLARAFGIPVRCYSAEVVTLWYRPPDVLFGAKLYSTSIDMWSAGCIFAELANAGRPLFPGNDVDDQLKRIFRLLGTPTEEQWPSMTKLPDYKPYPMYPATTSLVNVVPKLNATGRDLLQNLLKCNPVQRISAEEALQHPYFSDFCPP
Chain of Cyclin-dependent kinase 5/CDK5 activator 1 (Q15078 whole entry, further chain): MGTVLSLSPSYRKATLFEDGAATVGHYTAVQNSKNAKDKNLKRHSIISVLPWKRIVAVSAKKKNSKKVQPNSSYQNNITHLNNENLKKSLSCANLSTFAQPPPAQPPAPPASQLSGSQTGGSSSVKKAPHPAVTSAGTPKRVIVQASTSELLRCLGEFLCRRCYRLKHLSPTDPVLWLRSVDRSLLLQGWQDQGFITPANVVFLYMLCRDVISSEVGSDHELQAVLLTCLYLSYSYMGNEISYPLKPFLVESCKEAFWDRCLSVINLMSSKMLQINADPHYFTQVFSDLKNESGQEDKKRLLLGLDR
Test [7] has as its system Staphylococcus aureus. Kind of test: Antibacterial activity against Staphylococcus aureus ATCC 6538 incubated for 48 hr followed by subculturing measured after 18 hr. The class given is functional.
In test [8] the target is Glycogen synthase kinase-3 (Homo sapiens, UniProt P49840+P49841). Kind of test: Inhibition of GSK3alpha/beta (unknown origin). The class given is protein assay.
Test [9] concerns Escherichia coli. Kind of test: Antibacterial activity against Escherichia coli NCTC 10418 at 1 mg/ml after 24 hr by agar cup diffusion method. The class given is functional. Conditions: NCTC 10418, 24 h, read-out: DIZ.
The subject of test [10] is Staphylococcus aureus. Kind of test: Antibacterial activity against Staphylococcus aureus ATCC 6538 after 48 hr by two fold serial dilution method. The class given is functional. The conditions noted are these: ATCC 6538, 48 h.
A short description of test [11]: Inhibition of Marthasterias glacialis CDK1/cyclin B using histone H1 as substrate and [gamma32P]ATP after 10 min by scintillation counting.
In test [12] the test system is Pseudomonas aeruginosa. Kind of test: Antibacterial activity against Pseudomonas aeruginosa ATCC 9027 after 48 hr by two-fold serial dilution method. The conditions noted are these: ATCC 9027, 48 h. It is filed as functional.

Converted amounts (≈) assume the structure as drawn. Bounds are passed on as bounds.

As to `O=C(O)/C(Br)=C/c1ccc(Cl)cc1`, the MBC with Escherichia coli [1] was 500 µg/mL (≈ 1910 µM); against Pseudomonas aeruginosa [2] it was 62.5 µg/mL (≈ 239 µM); against Staphylococcus aureus [7], 500 µg/mL (≈ 1910 µM). In addition, the zone of inhibition at 1000 µg/mL in the test on Candida albicans came out at 15 mm; with Staphylococcus aureus [4], 30 mm; with Pseudomonas aeruginosa [5] it was 18 mm; with Escherichia coli [9], 18 mm. In addition, the values for the MIC with Escherichia coli [3], in the test with Staphylococcus aureus [10] and in the test on Pseudomonas aeruginosa [12] were 125 µg/mL (≈ 478 µM), 125 µg/mL (≈ 478 µM) and 31.2 µg/mL (≈ 120 µM), respectively. The IC50 in test [6], in test [8] and in [11] was over 10 µM in each case.

The values above are taken from ChEMBL document CHEMBL3044604, “Synthesis of some substituted furan-2(5H)-ones and derived quinoxalinones as potential anti-microbial and anti-cancer agents” (Med Chem Res, 2011).
